Read-outs that look alike come from different tables or passages of the source.
What was measured:
[1] = test system: luciferin/luciferase luminescent reactions; settings: for Max RLU / Max Time: 1 mM in ATP luminescent reagent; for Max RLU%: relative to the reaction system without pyrophosphoric acid (no PPi)
Protocol: To a 5 ml aliquot of this reagent, pyrophosphoric acid (Wako Purechemical Industries, Ltd.) was added to give a final concentration of 1 mM. Subsequently, ATP standard reagent (ATP concentration = 1 x 10^-12 M) included in the kit was dispensed into a microtiter plate at 100 µl/well. […] The same operations were performed on ATP luminescent reagent without pyrophosphoric acid. Further, ATP luminescent reagent to which potassium pyrophosphate or sodium pyrophosphate was added at a final concentration of 1 mM instead of pyrophosphoric acid was also prepared, and the above-described operations were performed.

[2] = target: T1, luciferase standard enzyme (Photinus pyralis, UniProt P08659); settings: 1.5mM PPiK; relative to w/o pyrophosphoric acid
T1 sequence (P08659 whole entry): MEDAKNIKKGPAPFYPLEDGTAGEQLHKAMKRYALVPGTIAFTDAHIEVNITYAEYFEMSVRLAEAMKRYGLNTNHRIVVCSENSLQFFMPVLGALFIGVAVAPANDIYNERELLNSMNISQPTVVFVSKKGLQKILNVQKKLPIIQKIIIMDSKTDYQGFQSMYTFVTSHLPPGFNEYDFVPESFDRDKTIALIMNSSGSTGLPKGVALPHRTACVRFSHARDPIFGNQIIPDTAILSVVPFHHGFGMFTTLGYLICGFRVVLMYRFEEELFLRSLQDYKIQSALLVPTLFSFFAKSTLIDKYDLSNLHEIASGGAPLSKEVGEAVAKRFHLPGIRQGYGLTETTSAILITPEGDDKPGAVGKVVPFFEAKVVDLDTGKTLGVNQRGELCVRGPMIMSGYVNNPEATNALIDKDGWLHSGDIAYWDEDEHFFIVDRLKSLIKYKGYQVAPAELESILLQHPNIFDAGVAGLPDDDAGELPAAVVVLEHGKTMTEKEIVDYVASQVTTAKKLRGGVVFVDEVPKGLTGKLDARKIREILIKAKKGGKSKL
Protocol: A "luciferase luminescent reagent" containing 20 mM tricine, 1.07 mM (MgCO3)4Mg(OH)2.5H2O, 2.67 mM magnesium sulfate, 0.1 mM EDTA, 33.3 mM DTT, 470 µM luciferin, 270 µM CoA and 530 µM adenosine triphosphate (ATP), pH 7.8 was prepared in accordance with the formulation described in the instructions included in "PicaGene Luminescent Kit" (Toyo Ink Manufacturing Co., Ltd.; product No. PGL100). […] Further, glycerol and DTT were allowed to co-exist in each of the above luminescent reagents at final concentrations of 10% and 1 mM, respectively, in order to promote the stabilization of luciferase enzyme.
A luciferase enzyme solution (100 ng/ml) was prepared by diluting "luciferase standard enzyme (10 µg/ml)" included in "PicaGene Luminescent Kit" (Toyo Ink Manufacturing Co., Ltd.; product No. PGL100) with "PicaGene Cell Lysis Reagent LUC" (Toyo Ink Manufacturing Co., Ltd.; product No. PGC50). 10 µl of this luciferase enzyme solution was dispensed into each well of a microtiter plate. Subsequently, 100 µl of the above-described luminescent reagent was added to the enzyme solution in each well. […] Since luciferin/luciferase luminescent reactions are greatly affected by temperature, all operations and measurements with a luminometer were performed in a thermostatic chamber set at 23°C.
Then, the above-described operations were repeated. […]

[3] = target: T1, luciferase standard enzyme; settings: 2 mM; for Max RLU / Max Time: with 2 mM sodium diethyldithiocarbamate, 10% glycerol; for Max RLU%: relative to the system without pyrophosphoric acid (no PPi)
Protocol: A "luciferase luminescent reagent" containing 20 mM tricine, 1.07 mM (MgCO3)4Mg(OH)2.5H2O, 2.67 mM magnesium sulfate, 0.1 mM EDTA, 470 µM luciferin and 530 µM adenosine triphosphate (ATP), pH 7.8 was prepared in accordance with the formulation described in the instructions included in "PicaGene Luminescent Kit" (Toyo Ink Manufacturing Co., Ltd.; product No. PGL100), except that 270 µM CoA and 33.3 mM DTT (thiol reagents) mentioned in the instructions were not added. […] In both reagents thus prepared, glycerol (final concentration: 10%) was allowed to co-exist in order to promote stabilization of luciferase enzyme.
A luciferase enzyme solution (100 ng/ml) was prepared by diluting "luciferase standard enzyme (10 µg/ml)" included in "PicaGene Luminescent Kit" (Toyo Ink Manufacturing Co., Ltd.; product No. PGL100) with "PicaGene Cell Lysis Reagent LUC" (Toyo Ink Manufacturing Co., Ltd.; product No. PGC50). 10 µl of this luciferase enzyme solution was taken into a cuvette of a luminometer (Berthold, LB9506). First, 100 µl of the "luciferase luminescent reagent" prepared above was added to the enzyme solution. Immediately after the addition, the resulting mixed solution was loaded onto the luminometer, and the quantity of light emitted (RLU/sec) was measured for the initial 200 seconds at intervals of 25 seconds. Then, the quantity of light emitted was measured in the same manner using the "luciferase luminescent reagent (+improvement)".

luciferase enzyme = experiment: ATP assay, time course of light emission with ATP luminescent reagent (Example 3, microtiter plate, 23°C); format: biochemical; settings: 2 mM, added as organic sulfur reagent
Text: Then, the above-described operations were repeated.

SMILES | Max RLU [1] | Max Time [1] | Max RLU% ([1]; 1 mM) | Max RLU% [2] | Max RLU [3] | Max Time [3] | Max RLU% [3] | effect on the stabilization of luminescent reactions (luciferase enzyme) | initial luminescence ([1]; 1 mM, relative to the initial luminescence with the ATP luminescent reagent) | time at which the quantity of light emitted reached the maximum value ([1]; after the start of the measurement)
O=P([O-])([O-])OP(=O)([O-])[O-].[K+].[K+].[K+].[K+] [PPiK, potassium pyrophosphate] | 16800.3 RLU | 15 min | 26.6% | 27.5% | 31448.0 RLU | 12 min | 25.6% | – | – | –
CCN(CC)C(=S)[S-].[Na+] [organic sulfur reagent, sodium diethyldithiocarbamate] | – | – | – | – | – | – | – | no effect on the stabilization of luminescent reactions | – | –
O=P([O-])([O-])OP(=O)([O-])[O-].[Na+].[Na+].[Na+].[Na+] [PPiNa, sodium pyrophosphate] | 15275.5 RLU | 25 min | 24.2% | – | 30290.8 RLU | 12 min | 24.7% | – | – | –
O=P(O)(O)OP(=O)(O)O [PPi, pyrophosphoric acid] | 30874.3 RLU | 5 min | 48.9% | – | 67904.5 RLU | 6 min | 55.4% | – | ≤ 50% | 5 min

Source: patent EP1793002A1 (priority 2004, dated 2006)
